# Test results taken from ChEMBL document CHEMBL4261633, “Butenolides from a marine-derived fungus Aspergillus terreus with antitumor activities against pancreatic ductal adenocarcinoma cells” (Bioorg Med Chem, 2018).
# Activity calls are given as the source filed them. The calls are words filed in the database; no cut-off is given here.
# Tests used:
# PANC-1 [1] = experiment: Cell cycle arrest in human PANC1 cells assessed as accumulation at G2/M phase at 15 uM after 24 hrs by RNAase/propidium iodide staining-based flow cytometric analysis (reference value: 6.83 to 11.82%); type: functional
# PANC-1 [2] = experiment: Cell cycle arrest in human PANC1 cells assessed as accumulation at S phase at 25 uM after 24 hrs by RNAase/propidium iodide staining-based flow cytometric analysis (reference value: 11.66 to 19.02%); type: functional
# HCC1806 = experiment: Antiproliferative activity against human HCC1806 cells after 24 hrs by CCK8 assay; type: functional, cell-based; conditions: HCC1806, 24 h
# PANC-1 [3] = experiment: Antiproliferative activity against human PANC1 cells after 24 hrs by CCK8 assay; type: functional, cell-based; conditions: PANC-1, 24 h
# PANC-1 [4] = experiment: Induction of apoptosis in human PANC1 cells assessed as early apoptotic cells at 10 uM after 24 hrs by FITC-Annexin V/propidium iodide staining-based flow cytometric analysis (reference value: 0.5 to 3.2%); type: functional
# PANC-1 [5] = experiment: Induction of apoptosis in human PANC1 cells assessed as nuclear chromatin condensation at 10 uM after 24 hrs by Hoechst 33258 staining based fluorescence microscopic analysis; type: functional, cell-based
# PANC-1 [6] = experiment: Induction of apoptosis in human PANC1 cells assessed as late apoptotic cells at 10 uM after 24 hrs by FITC-Annexin V/propidium iodide staining-based flow cytometric analysis (reference value: 0.0 to 0.7%); type: functional
# PANC-1 [7] = experiment: Cell cycle arrest in human PANC1 cells assessed as accumulation at S phase at 10 uM after 24 hrs by RNAase/propidium iodide staining-based flow cytometric analysis (reference value: 11.66 to 19.02%); type: functional
# PANC-1 [8] = experiment: Induction of apoptosis in human PANC1 cells assessed as necrotic cells at 15 uM after 24 hrs by FITC-Annexin V/propidium iodide staining-based flow cytometric analysis (reference value: 0.7 to 1.4%); type: functional
# PANC-1 [9] = experiment: Induction of apoptosis in human PANC1 cells after 24 hrs by FITC-Annexin V/propidium iodide staining-based flow cytometric analysis; type: functional, cell-based
# PANC-1 [10] = experiment: Induction of apoptosis in human PANC1 cells assessed as early apoptotic cells at 15 uM after 24 hrs by FITC-Annexin V/propidium iodide staining-based flow cytometric analysis (reference value: 0.5 to 3.2%); type: functional
# PANC-1 [11] = experiment: Cell cycle arrest in human PANC1 cells assessed as accumulation at G2/M phase at 5 uM after 24 hrs by RNAase/propidium iodide staining-based flow cytometric analysis (reference value: 6.83 to 11.82%); type: functional
# PANC-1 [12] = experiment: Induction of apoptosis in human PANC1 cells assessed as nuclear shrinkage at 10 uM after 24 hrs by Hoechst 33258 staining based fluorescence microscopic analysis; type: functional, cell-based
# PANC-1 [13] = experiment: Induction of apoptosis in human PANC1 cells assessed as early apoptotic cells at 5 uM after 24 hrs by FITC-Annexin V/propidium iodide staining-based flow cytometric analysis (reference value: 0.5 to 3.2%); type: functional
# PANC-1 [14] = experiment: Induction of apoptosis in human PANC1 cells assessed as nuclear fragmentation at 25 uM after 24 hrs by Hoechst 33258 staining based fluorescence microscopic analysis; type: functional, cell-based
# PANC-1 [15] = experiment: Induction of apoptosis in human PANC1 cells assessed as early apoptotic cells at 25 uM after 24 hrs by FITC-Annexin V/propidium iodide staining-based flow cytometric analysis (reference value: 0.5 to 3.2%); type: functional
# PANC-1 [16] = experiment: Induction of apoptosis in human PANC1 cells assessed as late apoptotic cells at 5 uM after 24 hrs by FITC-Annexin V/propidium iodide staining-based flow cytometric analysis (reference value: 0.0 to 0.7%); type: functional
# HT-29 = experiment: Antiproliferative activity against human HT-29 cells after 24 hrs by CCK8 assay; type: functional, cell-based; conditions: HT-29, 24 h
# PANC-1 [17] = experiment: Cell cycle arrest in human PANC1 cells assessed as accumulation at G2/M phase at 10 uM after 24 hrs by RNAase/propidium iodide staining-based flow cytometric analysis (reference value: 6.83 to 11.82%); type: functional
# PANC-1 [18] = experiment: Induction of apoptosis in human PANC1 cells assessed as viable cells at 25 uM after 24 hrs by FITC-Annexin V/propidium iodide staining-based flow cytometric analysis (reference value: 94.7 to 98.7%); type: functional; conditions: PANC-1, 24 h, read-out: Activity
# PANC-1 [19] = experiment: Cell cycle arrest in human PANC1 cells assessed as accumulation at S phase at 15 uM after 24 hrs by RNAase/propidium iodide staining-based flow cytometric analysis (reference value: 11.66 to 19.02%); type: functional
# HepG2 = experiment: Antiproliferative activity against human HepG2 cells after 24 hrs by CCK8 assay; type: functional, cell-based; conditions: HepG2, 24 h
# BEAS-2B = experiment: Antiproliferative activity against human BEAS2B cells after 24 hrs by CCK8 assay; type: functional, cell-based
# PANC-1 [20] = experiment: Induction of apoptosis in human PANC1 cells assessed as necrotic cells at 10 uM after 24 hrs by FITC-Annexin V/propidium iodide staining-based flow cytometric analysis (reference value: 0.7 to 1.4%); type: functional
# PANC-1 [21] = experiment: Cell cycle arrest in human PANC1 cells assessed as accumulation at S phase at 5 uM after 24 hrs by RNAase/propidium iodide staining-based flow cytometric analysis (reference value: 11.66 to 19.02%); type: functional
# PANC-1 [22] = experiment: Induction of apoptosis in human PANC1 cells assessed as late apoptotic cells at 15 uM after 24 hrs by FITC-Annexin V/propidium iodide staining-based flow cytometric analysis (reference value: 0.0 to 0.7%); type: functional
# PANC-1 [23] = experiment: Cell cycle arrest in human PANC1 cells assessed as accumulation at G2/M phase at 25 uM after 24 hrs by RNAase/propidium iodide staining-based flow cytometric analysis (reference value: 6.83 to 11.82%); type: functional
# PANC-1 [24] = experiment: Cell cycle arrest in human PANC1 cells assessed as accumulation at G1 phase at 10 uM after 24 hrs by RNAase/propidium iodide staining-based flow cytometric analysis (reference value: 67.93 to 75.87%); type: functional
# PANC-1 [25] = experiment: Induction of apoptosis in human PANC1 cells assessed as necrotic cells at 25 uM after 24 hrs by FITC-Annexin V/propidium iodide staining-based flow cytometric analysis (reference value: 0.7 to 1.4%); type: functional
# PANC-1 [26] = experiment: Induction of apoptosis in human PANC1 cells assessed as viable cells at 10 uM after 24 hrs by FITC-Annexin V/propidium iodide staining-based flow cytometric analysis (reference value: 94.7 to 98.7%); type: functional; conditions: PANC-1, 24 h, read-out: Activity
# PANC-1 [27] = experiment: Induction of apoptosis in human PANC1 cells assessed as viable cells at 5 uM after 24 hrs by FITC-Annexin V/propidium iodide staining-based flow cytometric analysis (reference value: 94.7 to 98.7%); type: functional; conditions: PANC-1, 24 h, read-out: Activity
# PANC-1 [28] = experiment: Cell cycle arrest in human PANC1 cells assessed as accumulation at G1 phase at 25 uM after 24 hrs by RNAase/propidium iodide staining-based flow cytometric analysis (reference value: 67.93 to 75.87%); type: functional
# PANC-1 [29] = experiment: Induction of apoptosis in human PANC1 cells assessed as nuclear shrinkage at 25 uM after 24 hrs by Hoechst 33258 staining based fluorescence microscopic analysis; type: functional, cell-based
# PANC-1 [30] = experiment: Induction of apoptosis in human PANC1 cells assessed as necrotic cells at 5 uM after 24 hrs by FITC-Annexin V/propidium iodide staining-based flow cytometric analysis (reference value: 0.7 to 1.4%); type: functional
# PANC-1 [31] = experiment: Induction of apoptosis in human PANC1 cells assessed as late apoptotic cells at 25 uM after 24 hrs by FITC-Annexin V/propidium iodide staining-based flow cytometric analysis (reference value: 0.0 to 0.7%); type: functional
# PANC-1 [32] = experiment: Cell cycle arrest in human PANC1 cells assessed as accumulation at G1 phase at 15 uM after 24 hrs by RNAase/propidium iodide staining-based flow cytometric analysis (reference value: 67.93 to 75.87%); type: functional
# PANC-1 [33] = experiment: Induction of apoptosis in human PANC1 cells assessed as nuclear fragmentation at 10 uM after 24 hrs by Hoechst 33258 staining based fluorescence microscopic analysis; type: functional, cell-based
# PANC-1 [34] = experiment: Cell cycle arrest in human PANC1 cells assessed as accumulation at G1 phase at 5 uM after 24 hrs by RNAase/propidium iodide staining-based flow cytometric analysis (reference value: 67.93 to 75.87%); type: functional
# PANC-1 [35] = experiment: Induction of apoptosis in human PANC1 cells assessed as nuclear chromatin condensation at 25 uM after 24 hrs by Hoechst 33258 staining based fluorescence microscopic analysis; type: functional, cell-based
# PANC-1 [36] = experiment: Induction of apoptosis in human PANC1 cells assessed as viable cells at 15 uM after 24 hrs by FITC-Annexin V/propidium iodide staining-based flow cytometric analysis (reference value: 94.7 to 98.7%); type: functional; conditions: PANC-1, 24 h, read-out: Activity
smiles,measurement,setting,value
COC(=O)[C@]1(Cc2ccc(O)c(CC=C(C)C)c2)OC(=O)C(O)=C1c1ccccc1,Activity,PANC-1 [1],7.7%
same,Activity,PANC-1 [2],42.63%
same,IC50,HCC1806,18.7 µM
same,IC50,PANC-1 [3],9.4 µM
same,Activity,PANC-1 [4],13.6%
same,Activity,PANC-1 [5],Active
same,Activity,PANC-1 [6],1.4%
same,Activity,PANC-1 [7],31.28%
same,Activity,PANC-1 [8],0.9%
same,Activity,PANC-1 [9],Dose-dependent effect
same,Activity,PANC-1 [10],14.9%
same,Activity,PANC-1 [11],7.77%
same,Activity,PANC-1 [12],Active
same,Activity,PANC-1 [13],6.8%
same,Activity,PANC-1 [14],Active
same,Activity,PANC-1 [15],21.1%
same,Activity,PANC-1 [16],0.8%
same,IC50,HT-29,> 20 µM
same,Activity,PANC-1 [17],8.14%
same,viability at 25 µM,PANC-1 [18],73.6%
same,Activity,PANC-1 [19],32.92%
same,IC50,HepG2,12.9 µM
same,IC50,BEAS-2B,> 20 µM
same,Activity,PANC-1 [20],1.2%
same,Activity,PANC-1 [21],10.92%
same,Activity,PANC-1 [22],1%
same,Activity,PANC-1 [23],10.63%
same,Activity,PANC-1 [24],56.57%
same,Activity,PANC-1 [25],2.3%
same,viability at 10 µM,PANC-1 [26],83.9%
same,viability at 5 µM,PANC-1 [27],91.1%
same,Activity,PANC-1 [28],43.95%
same,Activity,PANC-1 [29],Active
same,Activity,PANC-1 [30],1.3%
same,Activity,PANC-1 [31],3%
same,Activity,PANC-1 [32],52.41%
same,Activity,PANC-1 [33],Active
same,Activity,PANC-1 [34],72.84%
same,Activity,PANC-1 [35],Active
same,viability at 15 µM,PANC-1 [36],83.2%
